Measurements from a melting point compilation (Tetko et al.; mined from patent text by program, amines drawn as free bases though some values may be those of a salt).

Compound	melting point [°C]
Clc1ccc(CC(Cn2cncn2)Cn2cncn2)cc1	107 to 108
Cc1[nH]c2ccc(OCCCCBr)cc2c1C	119 to 120
Cn1nc(-c2ccc(O)cc2)ccc1=O	242 to 245
CCCc1c(OCC(=O)OCC)ccc(C(C)=O)c1O	61 to 64
COc1ccc(-c2ccc(C(=O)Nc3cc4ncc(CN5CCCC5)cc4cc3C)c(F)c2)cc1	187 to 190
Nc1ccc(C23CC(C2)C(=O)NC3=O)cc1	265
Cc1oc(C)c(C(=O)OC2CC(C)(C)N(C)C(C)(C)C2)c1C	55 to 56
N[C@@H]1C(=O)N[C@@H]1COC(=O)c1ccccc1 (relative stereo)	150 to 151
COC=C(C(=O)OC)c1ccccc1[C@@H]1O[C@H]1c1ccccc1 (relative stereo)	110 to 113
CCCCOc1c(CNC(=O)OC(C)(C)C)n(CC(C)C)c(=O)c2ccc(C(N)=NO)cc12	209 to 210
O=C1CSC2CN=C(c3ccccc3)c3cc(Cl)ccc3N12 (centres undefined)	228 to 230
CC(C)(C)NCC(O)c1cc(Br)c(N)c([N+](=O)[O-])c1 (centres undefined)	151 to 152
COC(=O)C(=O)c1ccc(OCc2ccc3ccccc3c2)cc1	101 to 102
CCCCc1nc(Cl)c(CC(=O)OCC)c(Cc2ccc(-c3ccccc3-c3nnn[nH]3)cc2)n1	160
Cc1oc(-c2ccccc2)nc1COc1cc(F)cc(CN(O)C(N)=O)c1	157 to 158
CC(=S)NC[C@H]1CN(c2ccc(N3CCN(C(=O)CO)CC3)c(F)c2)C(=O)O1	163 to 165
CCCCOc1ccc(S(=O)(=O)N2CC(NCC(O)c3ccc(O)c(NS(C)(=O)=O)c3)C2)cc1 (centres undefined)	67 to 70
CCc1ccc2c(c1)C=Cc1cc(C)ccc1C2c1cn(-c2nccc(C(=O)NCC(=O)O)n2)c(=O)[nH]c1=O (centres undefined)	195 to 198
CC(=O)NC(CSSc1ccccc1C(=O)Nc1ccc(S(N)(=O)=O)cc1)C(=O)O (centres undefined)	218 to 220
CCOc1nc(=O)n(C(=O)NC(=O)CCl)s1	132

Compound	melting point [°C]
O=C1NCCN1OCc1ccccc1	64 to 65
CCCc1c(OCCCSc2ccc(C(=O)CCC(=O)O)c(O)c2)ccc(C(C)=O)c1O	140
CC1=C(S(C)(=O)=O)C(c2ccc(Cl)c([N+](=O)[O-])c2)C2=C(CCC2=O)N1 (centres undefined)	232
CNC(=O)n1c(=O)n(CCCN2CCN(C(c3ccccc3)c3ccccc3)CC2)c2ccccc21	153
CCCCCCCCCCOc1ccc(CO)cc1	54 to 55
COc1cc(OC)cc(C(=O)NC(NC(=NC#N)Nc2ccc(C(F)(F)F)nc2)C(C)(Cl)Cl)c1 (centres undefined)	187 to 189
CC1CCN2C=CC3=C(N=C12)C(c1c[nH]c2ccccc12)CC=C3 (centres undefined)	190 to 192
C=CCc1cc2c(cc1O)CC(CCc1ccccc1)O2 (centres undefined)	79 to 80
Nc1ccc(Oc2ccc3cccnc3c2)cc1	131
CC(CC(C)C1CCC2C3C(O)CC4CC(O)CCC4(C)C3CCC12C)C(=O)O (centres undefined)	125 to 127
COc1ccc(Nc2nc(OCC3CCCCC3)c3[nH]cnc3n2)cc1	189 to 192
O=C(NCC12CC3CC(CC(C3)C1)C2)c1cc(-c2ccc(Cl)c(C(=O)O)n2)ccc1Cl	154 to 159
CNc1c(F)cc2c(=O)c(C(=O)O)cn(-c3nc(N)c(F)cc3F)c2c1F	270 to 273
CCCC=C(c1ccccc1N1CCCCC1)C(C(N)=O)c1ccc(C(=O)OCC)cc1 (centres undefined)	94 to 97
O=C(CNc1ccc(F)cc1)N1CCN2C(=O)OC(c3ccccc3)(c3ccccc3)C2C1 (centres undefined)	203 to 204
CCCCN1CC(=O)C(C(=O)OCC)C1=O (centres undefined)	121 to 123
O=CN1CCN(O)CC1	118 to 124
COc1cc(C(=O)N2Cc3cccn3Cc3ccccc32)ccc1N	184 to 185
c1ccc(-n2c3ccccc3c3cc4c(cc32)c2ccccc2n4-c2ccccc2)cc1	306
